From article PMC10478824, “Development of FAPI Tetramers to Improve Tumor Uptake and Efficacy of FAPI Radioligand Therapy” (Journal of Nuclear Medicine, 2023)

Key:
[1] = In vitro stability in phosphate-buffered saline and fetal bovine serum (radio-HPLC); format: in vitro ADME; details: 24 h incubation in phosphate-buffered saline and fetal bovine serum
HT-1080-FAP tumors [2] = assay: Ex vivo biodistribution of ^177Lu-labeled FAPIs in HT-1080-FAP tumor-bearing mice; details: for tumor uptake: HT-1080-FAP tumors
Protocol: (§1) All animal experimental procedures were approved by the Animal Care and Ethics Committee of Xiamen University and performed in accordance with the Guidelines for the Care and Use of Animals of the Xiamen University Laboratory Animal Center. For in vivo experiments, 6-wk-old BALB/c nude mice (Beijing Vital River Laboratory Animal Technology Co., Ltd.) were subcutaneously inoculated with HT-1080-FAP or U87 cells (5 × 10^6 in 100 μL of phosphate-buffered saline) in the right shoulder.
Three groups of HT-1080-FAP mice were injected with 0.74 MBq of ^177Lu-FAPI-46, ^177Lu-DOTA-2P(FAPI)2, or ^177Lu-DOTA-4P(FAPI)4 and were euthanized at different time points (24–48 h for monomers and 24–96 h for dimers and tetramers, 3/group). Blood, tumor, muscle, and major organs were weighed and measured using a γ-counter (WIZARD^2 2480). Data were normalized to the percentage injected dose per gram (%ID/g) using 1% of total counts.

HT-1080-FAP tumors [3] = assay: FAP-targeted radioligand therapy in HT-1080-FAP tumor-bearing mice; format: in vivo
Protocol: as §1
(§2) When the tumor volume reached approximately 100 mm^3, the mice were randomized into 4 groups for radioligand therapy with ^177Lu-labeled monomeric, dimeric, and tetrameric FAPIs (6/group): group A, saline; group B, 29.6 MBq of ^177Lu-FAPI-46; group C, 29.6 MBq of ^177Lu-DOTA-2P(FAPI)2; and group D, 29.6 MBq of ^177Lu-DOTA-4P(FAPI)4. […] HT-1080-FAP, a FAP-transfected tumor xenograft with much higher levels of FAP expression than U87MG, was also used in this study. Therefore, the frequency of administration was higher in U87MG tumor–bearing mice (every 72 h, 3 doses in total) than in the HT-1080-FAP models (a single dose). Weight and tumor volume were monitored every 2 d, and the mice were euthanized when the average tumor volume exceeded 1,500 mm^3, when the tumor was ulcerated, or when weight loss was more than 20%. To further assess radioligand therapy–related toxicity effects, the main organs were collected from the ^177Lu-DOTA-4P(FAPI)4 group on day 22 after hematoxylin and eosin staining ([16]).

U87MG tumors = assay: FAP-targeted radioligand therapy in U87MG tumor-bearing mice; format: in vivo; details: 29.6 MBq every 72 h, 3 doses
Protocol: as §1
as §2, with “To further assess radioligand therapy–related toxicity effects, the main organs were collected from the ^177Lu-DOTA-4P(FAPI)4 group on day 22 after hematoxylin and eosin staining ([16]).” left out

[4] = target: T1, FAP (FAP-positive HT-1080-FAP cells) (Homo sapiens, UniProt Q12884); assay: Competitive cell-binding assay against ^68Ga-FAPI-46; details: competition with ^68Ga-FAPI-46, 60 min, read-out: 50% inhibitory concentration
T1 construct: expressed in transfected cells; host or cells: HT-1080 human fibrosarcoma cells, stably transfected (HT-1080-FAP)
T1 sequence (Q12884 1-760): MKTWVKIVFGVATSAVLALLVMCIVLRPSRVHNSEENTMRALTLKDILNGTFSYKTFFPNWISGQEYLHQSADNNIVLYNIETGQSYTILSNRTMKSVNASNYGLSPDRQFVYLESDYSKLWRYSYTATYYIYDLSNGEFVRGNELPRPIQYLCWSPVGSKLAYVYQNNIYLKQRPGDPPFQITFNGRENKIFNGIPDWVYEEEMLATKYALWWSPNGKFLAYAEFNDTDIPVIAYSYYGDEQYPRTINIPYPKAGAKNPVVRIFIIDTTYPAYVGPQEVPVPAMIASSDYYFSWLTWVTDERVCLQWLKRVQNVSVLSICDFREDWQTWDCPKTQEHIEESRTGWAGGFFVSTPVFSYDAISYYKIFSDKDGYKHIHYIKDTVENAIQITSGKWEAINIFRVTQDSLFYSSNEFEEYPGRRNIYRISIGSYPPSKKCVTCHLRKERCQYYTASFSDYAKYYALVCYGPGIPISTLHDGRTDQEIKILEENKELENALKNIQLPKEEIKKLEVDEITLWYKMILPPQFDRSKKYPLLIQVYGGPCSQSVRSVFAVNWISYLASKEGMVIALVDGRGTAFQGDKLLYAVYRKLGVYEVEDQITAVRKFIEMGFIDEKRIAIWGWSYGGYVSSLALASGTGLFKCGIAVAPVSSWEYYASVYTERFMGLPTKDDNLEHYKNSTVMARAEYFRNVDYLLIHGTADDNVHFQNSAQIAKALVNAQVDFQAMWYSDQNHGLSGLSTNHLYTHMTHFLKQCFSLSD
Protocol: A human fibrosarcoma cell line was stably transfected with FAP (HT-1080-FAP) and cultured, as previously described ([15]). A human glioblastoma cell line (U87MG, from the Chinese National Infrastructure of Cell Line Resource) was cultured in Dulbecco modified Eagle medium (Thermo Fischer Scientific) supplemented with 10% fetal bovine serum (Thermo Fisher Scientific). HT-1080-FAP cells were seeded in 24-well plates using RPMI 1640 medium with 10% fetal bovine serum, and the medium was replaced with fresh medium without fetal bovine serum when the cells reached 80%–90% density. ^68Ga-FAPI-46, ^68Ga-DOTA-2P(FAPI)2, ^68Ga-DOTA-4P(FAPI)4, or ^68Ga-DOTA-4P(FAPI)4 with 11.3 nmol of unlabeled FAPI-46 (for the blocking experiment) were added to the 24-well plates and incubated for 60, 90, and 120 min. For the competitive cell-binding assay, a gradient concentration (5.6 × 10^−13 to 10^−5 M) of FAPI-46, DOTA-2P(FAPI)2, or DOTA-4P(FAPI)4 was added to the cells and incubated with ^68Ga-FAPI-46 for 60 min. […] The radioactivity (counts per minute) was determined with a γ-counter (WIZARD^2 2480; PerkinElmer Inc.). […] The 50% inhibitory concentrations were determined by fitting a nonlinear regression model to the data using Prism software, version 8 (GraphPad Software Inc.).

[5] = HT-1080-FAP tumor-bearing mice, 48 h after injection

| SMILES | in vitro stability (demetallation / free radioactivity) [1] | in vitro stability (demetallation / free radioactivity) ([1]; listed as 177Lu-DOTA-4P[FAPI]4) | kidney uptake (HT-1080-FAP tumors [2]; [5]) | liver uptake (HT-1080-FAP tumors [2]; [5]) | spleen uptake (HT-1080-FAP tumors [2]; [5]) | tumor uptake (HT-1080-FAP tumors [2]; 24 h after injection) | tumor uptake (HT-1080-FAP tumors [2]; 48 h after injection) | tumor uptake (HT-1080-FAP tumors [2]; 72 h after injection) | tumor uptake (HT-1080-FAP tumors [2]; 96 h after injection) | systemic toxicity by monitoring body weight (HT-1080-FAP tumors [3]; HT-1080-FAP tumor-bearing mice, 29.6 MBq) | tumor growth after radioligand therapy (HT-1080-FAP tumors [3]; HT-1080-FAP, single dose 29.6 MBq) | hematoxylin and eosin staining of selected nontarget organs (HT-1080-FAP tumors [3]; organs collected on day 22, versus control) | median survival (U87MG tumors) | tumor volume (U87MG tumors; day 14 after treatment) | IC50 [4] |
| --- | --- | --- | --- | --- | --- | --- | --- | --- | --- | --- | --- | --- | --- | --- | --- |
| CN(CCCN1CCN(C(=O)COCCOCCOCCNC(=O)CCC(=O)NCCCC[C@H](NC(=O)CCC(=O)NCCOCCOCCOCC(=O)N2CCN(CCCN(C)c3ccc4nccc(C(=O)NCC(=O)N5CC(F)(F)C[C@H]5C#N)c4c3)CC2)C(=O)NCCCC[C@H](NC(=O)[C@H](CCCCNC(=O)CN2CCN(CC(=O)[O-])CCN(CC(=O)[O-])CCN(CC(=O)[O-])CC2)NC(=O)CCC(=O)NCCOCCOCCOCC(=O)N2CCN(CCCN(C)c3ccc4nccc(C(=O)NCC(=O)N5CC(F)(F)C[C@H]5C#N)c4c3)CC2)C(=O)NCCOCCOCCOCC(=O)N2CCN(CCCN(C)c3ccc4nccc(C(=O)NCC(=O)N5CC(F)(F)C[C@H]5C#N)c4c3)CC2)CC1)c1ccc2nccc(C(=O)NCC(=O)N3CC(F)(F)C[C@H]3C#N)c2c1.[177Lu+3] [^177Lu-DOTA-4P(FAPI)4] | highly stable | neither significant demetallation nor free radioactivity was observed | 6.6 ± 0.2 %ID/g | 6.3 ± 0.5 %ID/g | 5.1 ± 0.7 %ID/g | 21.4 ± 1.7 %ID/g | 19.2 ± 0.6 %ID/g | 18.8 ± 2.1 %ID/g | 14.8 ± 0.9 %ID/g | No systemic toxicity | significant inhibition of tumor growth | no differences between the control and radioligand therapy groups | not reached | 140.28 ± 76.36 mm^3 | – |
| CN(CCCN1CCN(C(=O)COCCOCCOCCNC(=O)CCC(=O)NCCCC[C@H](NC(=O)CCC(=O)NCCOCCOCCOCC(=O)N2CCN(CCCN(C)c3ccc4nccc(C(=O)NCC(=O)N5CC(F)(F)C[C@H]5C#N)c4c3)CC2)C(=O)NCCCC[C@H](NC(=O)[C@H](CCCCNC(=O)CN2CCN(CC(=O)O)CCN(CC(=O)O)CCN(CC(=O)O)CC2)NC(=O)CCC(=O)NCCOCCOCCOCC(=O)N2CCN(CCCN(C)c3ccc4nccc(C(=O)NCC(=O)N5CC(F)(F)C[C@H]5C#N)c4c3)CC2)C(=O)NCCOCCOCCOCC(=O)N2CCN(CCCN(C)c3ccc4nccc(C(=O)NCC(=O)N5CC(F)(F)C[C@H]5C#N)c4c3)CC2)CC1)c1ccc2nccc(C(=O)NCC(=O)N3CC(F)(F)C[C@H]3C#N)c2c1 [DOTA-4P(FAPI)4] | – | – | – | – | – | – | – | – | – | – | – | – | – | – | 0.0156 µM |
